From patent publication US12616700B2, “Therapeutic regimen” (Novartis AG, priority 2017, dated 2026)
Where two headings read alike, the source gives them in different places.

Tests used:
[1] = cited from earlier work
[2] = Dog study of lumefantrine-SDF and KAF156 alone and co-dosed (Example 6); assay type: in vivo; details: for Cmax / AUC(0-inf) / AUC(0-t) / half-life / Tmax: po, 100 mg; for AUC(0-inf): read-out: AUCinf, Mean; for AUC(0-t): read-out: AUClast, Mean; for half-life: read-out: T½, Mean (converted)
Experimental: The study design is described in the table below. To stimulate gastric secretion, each animal (dog) received a single 6-μg/kg intramuscular injection of pentagastrin approximatively 60 minutes prior to test article administration. Washout between each treatment was approximatively 7-8 days. [table]

[3] = assay type: in vitro ADME
Experimental: Lumefantrine concentration was determined by a validated Liquid chromatography-Mass spectrometry (LC-MS/MS) method with a Lower Limit of Quantification (LLOQ) of 50 ng/mL. Briefly, the bioanalytical method consisted of protein precipitation followed by solid phase extraction of human plasma samples and analysis of diluted samples by LC-MS/MS in Multiple Reaction Monitoring (MRM) positive mode using Electrospray Ionization (ESI) as the ionization technique. The lower and upper limits of quantification for linear range were 50.0 ng/mL and 20000 ng/mL respectively using […] of human plasma. Lumefantrine in human plasma is stable for 44 hours at room temperature; 9 months at ≤−70° C.; 3 freeze/thaw cycles at ≤−70° C. The extract is stable for 100 hours in an autosampler at 8° C. The stability data could cover the period from sampling to analysis of all study samples. For eight points calibration concentrations (50, 100, 200, 500, 2000, 5000, 16000 and 20000 ng/mL) bias was within the range of 15.0% at all concentrations except for LLOQ (50 ng/mL) for which it was within the range of 20.0%. For quality control samples (150 ng/mL, 2500 ng/mL and 15000 ng/mL) bias was within the range of 15.0% for at least ⅔ of the individual values.

[4] = test system: P. vivax or P. falciparum; details: cited from earlier work
P. falciparum = details: in vitro; cited from earlier work
liver hypnozoites = details: cited from earlier work
[5] = test system: drug-sensitive and a broad panel of drug resistant malaria strains; details: cited from earlier work
P. vivax = details: in vitro; cited from earlier work
Plasmodium = details: causal prophylactic protection in animal infection models; cited from earlier work
[6] = P. falciparum malaria, multiple-dose cohort
[7] = Dog 3 (emesis after dosing in Phase 5)
[8] = dog, in vivo, Phase 2 (Combo), dog
[9] = dog, in vivo, Phase 5 (Mono), dog

Question: Which “increase of bioavailability by food” value ([1]; Coartem administered with high fat food) does the source give for `CO[C@H]1O[C@@H]2O[C@@]3(C)CC[C@H]4[C@H](C)CC[C@@H]([C@H]1C)[C@@]24OO3` [artemether] here?
Answer: up to 3 fold

Question: Which “increase of lumefantrine exposure when administered together with KAF156” value ([2]; dog, in vivo) does the source give for `CCCCN(CCCC)CC(O)c1cc(Cl)cc2c1-c1ccc(Cl)cc1/C2=C/c1ccc(Cl)cc1` (stereo not drawn) [Lumefantrine, lumefantrine] here?
Answer: around 1.5 fold

Question: What about the “increase of bioavailability by food” value ([1]; in vivo) of the same compound?
Answer: up to 16 fold

Question: What about the “stability of the extract” value ([3]; human, 100 hours) of the same compound?
Answer: 100 h

Question: What about the “stability in human plasma” value ([3]; plasma, 44 hours) of the same compound?
Answer: 44 h

Question: For `CC1(C)c2nc(-c3ccc(F)cc3)c(Nc3ccc(F)cc3)n2CCN1C(=O)CN` [KAF156, 2-amino-1-(2-(4-fluorophenyl)-3-(4-fluorophenylamino)-8,8-dimethyl-5,6-dihydroimidazo[1,2-a]pyrazin-7(8H)-yl)ethanone], which serious adverse events ([4]; 400 mg/day for 3 days or single 800 mg) is on record?
Answer: No serious adverse event was reported

Question: And the “patients who reported nausea” value [4, 6]?
Answer: 1 patient

Question: What about the patients who vomited [4, 6] of the same compound?
Answer: 1 patient

Question: And the “activity against vivax and falciparum malaria, including artemisinin-resistant parasites” value ([4]; malaria patients)?
Answer: has activity

Question: And the half-life ([4]; malaria patients)?
Answer: about 50 hours

Question: And the patients who vomited ([4]; single 800-mg dose, besides one withdrawn for repeated vomiting)?
Answer: Five

Question: What about the “patients who reported nausea” value ([4]; single 800-mg dose) of the same compound?
Answer: Four

Question: And the “EC50, erythrocytic replication life cycle stages (blood stages)” value (P. falciparum)?
Answer: low nanomolar

Question: What about the “AUCinf Ratio (Phase 2:Phase 5)” value ([2]; Dog 1) of the same compound?
Answer: 2.6

Question: And the “AUClast Ratio (Phase 2:Phase 5)” value ([2]; Dog 1)?
Answer: 2.7

Question: What about the “Cmax Ratio (Phase 2:Phase 5)” value ([2]; Dog 1) of the same compound?
Answer: 2.6

Question: And the “AUCinf Ratio (Phase 2:Phase 5)” value ([2]; Dog 2)?
Answer: 2.8

Question: And the “AUClast Ratio (Phase 2:Phase 5)” value ([2]; Dog 2)?
Answer: 2.9

Question: And the “Cmax Ratio (Phase 2:Phase 5)” value ([2]; Dog 2)?
Answer: 2.5

Question: And the “AUCinf Ratio (Phase 2:Phase 5)” value [2, 7]?
Answer: 5.3

Question: What about the “AUClast Ratio (Phase 2:Phase 5)” value [2, 7] of the same compound?
Answer: 5.2

Question: And the “Cmax Ratio (Phase 2:Phase 5)” value [2, 7]?
Answer: 3.3

Question: And the “AUCinf Ratio (Phase 2:Phase 5)” value ([2]; Mean)?
Answer: 3.6

Question: And the “AUClast Ratio (Phase 2:Phase 5)” value ([2]; Mean)?
Answer: 3.6

Question: What about the “Cmax Ratio (Phase 2:Phase 5)” value ([2]; Mean) of the same compound?
Answer: 2.8

Question: What about the Cmax ([2]; dog, in vivo, Phase 2 (Combo)) of the same compound?
Answer: 1200 ng/mL

Question: What about the AUC(0-inf) [2, 8] of the same compound?
Answer: 45400 ng·h/mL

Question: What about the AUC(0-t) [2, 8] of the same compound?
Answer: 36700 ng·h/mL

Question: What about the half-life ([2]; dog, in vivo, Phase 2 (Combo), with Lumefantrine-SDF sachet, dog) of the same compound?
Answer: 31 h

Question: And the Tmax ([2]; dog, in vivo, Phase 2 (Combo), Tmax 1, 1, 8 hr in 3 dogs)?
Answer: 3.3 h

Question: What about the Cmax ([2]; dog, in vivo, Phase 5 (Mono)) of the same compound?
Answer: 451 ng/mL

Question: And the Tmax ([2]; dog, in vivo, Phase 5 (Mono))?
Answer: 1 h

Question: What about the AUC(0-inf) [2, 9] of the same compound?
Answer: 14400 ng·h/mL

Question: What about the AUC(0-t) [2, 9] of the same compound?
Answer: 11600 ng·h/mL

Question: What about the half-life [2, 9] of the same compound?
Answer: 33.2 h

Question: And the “activity against liver hypnozoites” value (liver hypnozoites)?
Answer: has not demonstrated activity

Question: And the “potency against drug-sensitive versus drug resistant malaria strains” value [5]?
Answer: equally potent

Question: And the “EC50, erythrocytic replication life cycle stages (blood stages)” value (P. vivax)?
Answer: low nanomolar

Question: And the “activity in liver stage models of Plasmodium infection” value (Plasmodium)?
Answer: has shown activity
